Assay results taken from PMC12118597 (Science Advances, 2025).

Columns and labels:
[1] = target: T1, SARS-CoV-2 NSP3 macrodomain (Mac1) (Severe acute respiratory syndrome coronavirus 2, UniProt P0DTD1); experiment: biochemical; assay type: binding; settings: for Average % competition: Single dose, concentration 200 μM; for inhibition at 200 µM: compound at 200 μM, mean of three to four technical replicates, read-out: % competition at 200 μM (preliminary HTRF screen)
[2] = target: T1, SARS-CoV-2 NSP3 macrodomain (Mac1); assay type: binding; settings: for Number of isomers bound: ligand modeling, Mac1 crystal soak
[3] = crystal soak 10 mM, TFA/DMSO background map
[4] = SARS CoV-2 macrodomain HTRF assay

C[C@@H](O)[C@H](CO)Nc1ncnc2[nH]ccc12.O=C(O)C(F)(F)F [AVI-3730]
Average % competition [1]: 63% | inhibition at 200 µM [1]: 63% | PanDDA run, TFA/DMSO background map: 1-BDC [2, 3]: 0.12 | PanDDA run, TFA/DMSO background map: Hit [2, 3]: TRUE | Number of isomers bound [2]: 1

OCC(CC1CCCCC1)Nc1ncnc2[nH]ccc12 (stereo not shown) [AVI-3690]
Average % competition [1]: 66% | inhibition at 200 µM [1]: 66% | Number of isomers bound [2]: 1

OC[C@@H]1C[C@@H]2CCC[C@@H]2N1c1ncnc2[nH]ccc12 [AVI-3720]
Ki [1, 4]: 26 µM | Ligand efficiency (binding enery per heavy atom) [1, 4]: 0.33 | IC50 ([1]; SARS CoV-2 macrodomain HTRF assay, dose-response, read-out: IC50): 28 µM | Number of isomers bound [2]: 1 | Isomers modeled ([2]; stereoisomer(s) modeled as bound, residues 201/202/203): SSS
